Measured values: a melting point compilation (Tetko et al.; mined from patent text by program, amines drawn as free bases though some values may be those of a salt)

melting point	Compound
255 to 256 °C	CCOCc1nc2nc(O)cnc2c(=O)[nH]1
107 to 108 °C	COc1ccccc1N1CCN(CCC2CN(C)C(=O)O2)CC1 (stereo not given)
220 to 224 °C	O=C(Nc1ccc2ccc(-c3ccc(Cl)cc3)nc2n1)c1cccc(Br)c1
159 to 162 °C	Cc1ccc(-c2cc(-c3ccccc3)cc3c2OC(CN)C3)cc1 (stereo not given)
42 to 44 °C	CCOC(=O)C=Cc1c(C)cc(OC)c(C)c1C
115 to 118 °C	O=C1Cc2cc(NC(=O)C(=O)N3CCC(Cc4ccccc4)CC3)ccc2N1
195 to 200 °C	COc1ccc(/C=C2/c3cc(OC)c(OC)cc3CCN2C(=O)c2cc(OC)c(OC)c(OC)c2)cc1OC
149 to 151 °C	COP(=O)(OC)[C@H](C)NC(=O)[C@H](C)NC(=O)[C@H](C)NC(=O)OCc1ccccc1
259 to 262 °C	CC12CCC3c4ccc(O)cc4C(CC(=O)O)CC3C1CC(O)C2O (stereo not given)
156 to 157 °C	COc1ccc(-c2coc3ccc(-c4nnc(SC)o4)cc23)cc1
164 to 166 °C	CN(Cc1ccccc1S(=O)c1nc2ccccc2[nH]1)c1ccccc1 (stereo not given)
152 to 165 °C	O=C1C2=NCCCN2c2cc(Cl)c([N+](=O)[O-])cc21
180 °C	OC1CSC(Oc2ccc(-n3ccnc3)cc2)C(O)C1O (stereo not given)
147 to 148 °C	CCOc1ccc(N(C)C=C(C#N)C#N)cc1
137 °C	COC(=O)[C@@H]1C[C@H](C(=O)OC(C)(C)C)N(C(=O)CNC(=O)OC(C)(C)C)[C@@H]1c1ccccc1 (racemic)
135 to 137 °C	Cc1ccccc1-c1ccc(Cl)cc1C(=O)O
176 to 177 °C	Cc1nc2cnc3ccccc3c2n1CC(C)O (stereo not given)
135 to 136 °C	Cc1cc(OCc2coc(/C=C/c3ccc(OC(F)(F)F)cc3)n2)ccc1CCCCc1cn(C(c2ccccc2)(c2ccccc2)c2ccccc2)nn1
239 to 241 °C	COC1C(O)C(CO)OC1n1cnc2c(N)nc(F)nc21 (stereo not given)
126 to 128 °C	Cc1nc(CCN2CCOCC2)c2c(n1)N(CC#N)C(=O)C(N)O2 (stereo not given)
98.5 to 101 °C	CN(C)CCCC1(c2ccc(OC3CCCCO3)cc2)Sc2ccccc2N(C)C1=O (stereo not given)
191 to 193 °C	COC(=O)c1c(I)cccc1Nc1ccccc1C(=O)O
244 to 247 °C	O=C1Nc2ccc(Cl)c(Cl)c2C1c1ccccc1F (stereo not given)
132 °C	COc1ccc(-c2cccc(OC3SCC(OC(C)=O)C(OC(C)=O)C3OC(C)=O)c2)cn1 (stereo not given)

melting point	Compound
218 to 220 °C	Cc1c(C)c2c(c(C)c1NC(=O)c1ccccc1)C(c1ccc(C(C)C)cc1)C(C)(C)O2 (stereo not given)
126 to 127 °C	O=C(O)CCCCCNS(=O)(=O)c1ccc(Cl)cc1
223 to 227 °C	CCCCc1nc2c(N)nc3ccc(O)cc3c2n1CCCCNS(C)(=O)=O
162 °C	COc1cc(O)c(C(=O)C=Cc2ccc3c(c2)OCO3)c(OC)c1
139 to 141 °C	O=CNCS(=O)(=O)c1ccc2ccccc2c1
126 to 132 °C	Cc1ccc(Cn2c(=O)c3c(Cl)cc(Cl)cc3n(Cc3ccccc3)c2=O)cc1C
64 to 65 °C	CCOC(=O)c1nc2cnn(CC)c2nc1C
214 °C	O=C(C=C1C(=O)N(c2ccccc2)C(=O)N1c1ccccc1)Nc1ccccc1
> 268 °C	Oc1ccc(-c2cnc3cnc(-c4ccccc4O)nc3c2)cc1
253 to 255 °C	Cc1nc(-c2ncn3c2COC(=O)c2c(Cl)cccc2-3)no1
70 to 71 °C	CCOC(=O)CN(CCOc1cc2cc3c(Nc4cc(OC)c(Cl)cc4C)c(C#N)cnc3cc2cc1OCC)CC(=O)OCC
128 to 129 °C	CN(CC(=O)NO)S(=O)(=O)Cc1cccc(C(F)(F)F)c1
222 °C	COc1cc(F)ccc1Nc1ccc2c(c1)OCc1cc([N+](=O)[O-])ccc1C2=O
218 to 220 °C	O=C(N[C@H]1CCN(C(=O)c2cc(C(F)(F)F)cc(C(F)(F)F)c2)[C@H](Cc2ccc(Cl)cc2)C1)c1cc(=O)c2ccc(Cl)cc2o1
235 to 237 °C	O=[N+]([O-])c1ccc2nc(Cl)[nH]c2c1
85 to 87 °C	COCCc1nc2c(N)nc3ccccc3c2n1CCCCNC(=O)c1cnc2ccccc2n1
112 to 115 °C	COc1cccc(-c2cc(Cl)ncn2)c1
109 to 111 °C	COc1ccc(-c2cc3cc(OC)cc(C(=O)N(C)OC)c3o2)cc1
132 to 134 °C	CC(C)C[C@H](NC(=O)C(CS)C(F)(F)F)C(=O)O (stereo not given in full)
76 to 77.5 °C	CCOC(=O)C=C(C)NC(=O)C(C)(C)CCl
115 to 117 °C	CN1N=C2C(=Cc3ccccc3)CNCC2C1c1ccccc1 (stereo not given)
163 to 165 °C	Cc1cccc(NC(=O)OCc2ccccn2)c1CNc1cccn2c(C)c(C)nc12
118 to 120 °C	Cn1c(C(F)(F)F)cc(=O)n(-c2cc(OC3CCCC3)c(Cl)cc2F)c1=O
126 to 128 °C	CC(Cc1ccc(Oc2cc(N3CCN(Cc4ccccc4)CC3)nc(Oc3ccccc3)n2)cc1)(Oc1ccccc1)C(=O)O (stereo not given)

melting point	Compound
229 to 231 °C	COc1ccc2c(c1)S(=O)c1nccnc1N2C (stereo not given)
226 to 228 °C	Nc1ncc(-c2cccnc2)cc1[N+](=O)[O-]
163 °C	CC(C)c1ccc(NC(=O)C2CCCc3ccccc32)cc1 (stereo not given)
189 to 192 °C	CCOC(=O)c1cn(-c2cnsn2)c2cc(F)c(F)cc2c1=O
147 to 150 °C	CSc1cc(C)nc(SC)c1NC(=O)CCCCSc1nc2ccccc2o1
158 to 160 °C	CC(C)(C)c1cc(-c2nn(CCC#N)c3ncccc23)cc(C(C)(C)C)c1O
120 to 122 °C	CCCN1CC(c2ccc(S(C)(=O)=O)cc2)=C(c2cccc(C)c2)C1=O
135 to 136 °C	CC(=O)c1ccc(N)c2c1OCCO2
170 to 174 °C	Nc1ccc([N+](=O)[O-])c(Cl)c1Cl
157 to 159 °C	Cc1c2c3c(ccc2nn1C)CCC3=O
238 to 240 °C	O=C1CCC(N2Cc3cc(CNC(=O)Nc4c(Cl)cccc4Cl)ccc3C2=O)C(=O)N1 (stereo not given)
120 to 121 °C	Cc1nc2c(cc1NC(=N)N=C=O)CCCCC2CO[N+](=O)[O-] (stereo not given)
132 to 135 °C	NS(=O)(=O)c1ccccc1-c1ccno1
108 to 110 °C	CCOC(=O)N1CCN2c3ccccc3Cc3ccccc3C2C1 (stereo not given)
210 °C	CS(=O)(=O)N(c1cccc(C(=O)NCc2nc[nH]n2)c1)C1CN(C(c2ccc(Cl)cc2)c2ccc(Cl)cc2)C1
160 °C	CSc1ccc(C(=O)c2cc(-c3ccc(S(C)(=O)=O)cc3)c(N3CCOCC3)s2)cc1
128 to 130 °C	CCCCCCC(C(=O)O)n1c(C(F)(F)F)nc2cc(-c3ccccc3-c3nn[nH]n3)ccc21 (stereo not given)
163 to 169 °C	CC(=O)C1CCC2C3CCC4CC5OC5CC4(C)C3C(OC(=O)CCl)CC12C (stereo not given)
169 to 170 °C	CC1(C)OCc2cc([C@@H](O)C(=O)N[C@H]3CCc4ccc(O)cc4C3)ccc2O1
71 to 73 °C	CCCC[C@H](NC(=O)[C@H](COC(C)(C)C)NC(=O)OCc1ccccc1)C(=O)CSCc1ccco1
114 to 116 °C	Cc1ccc(C2CC(CN(C)C)Oc3ccccc32)cc1 (stereo not given)
193 to 194 °C	NNc1nnc(C(=O)C(F)(F)F)nc1-c1ccccc1
108 to 112 °C	COc1ccc(-c2ccc3c(c2)CC[C@H]2N(C)C(=O)CC[C@]32C)cc1OC
58 to 60 °C	COc1ccc2cc(CCC(C)O)cc(F)c2c1 (stereo not given)

melting point	Compound
77 to 78 °C	O=C1CCCc2ccc(OCc3cccc(Cl)c3)cc21
77 to 79.5 °C	CC1(C)CC(=O)C(S(=O)CC2CCCCC2)=C(O)C1 (stereo not given)
210 to 212 °C	Nc1nc2ccccc2c2c1ncn2COCCO
179 to 180 °C	COc1ccc(C(=O)c2c(Cl)cc(Cl)cc2Cl)cc1Cc1ccc(=O)[nH]n1
102 to 150 °C	OCC1OC(n2c(Cl)nc3cc(Cl)ccc32)C(O)C1O (stereo not given)
139 to 144 °C	COc1cc2c(cc1OC)/C(=N/OCc1ccc([N+](=O)[O-])cc1)CC2
122 °C	CCOC(=O)c1cc2sc(C)c(N(C)C(=O)OCc3ccccc3)c2[nH]1
263 to 265 °C	Cn1c(-c2nnc(N)s2)cnc1[N+](=O)[O-]
157 to 160 °C	CCOc1ccc2[nH]c(SCc3cccn4ccnc34)nc2c1
175 °C	Cc1ccc2c(c1)C=Cc1cc(C)ccc1C2c1cn(Cc2nc(C(=O)N[C@@H](CC(=O)O)C(=O)O)cs2)c(=O)[nH]c1=S
193 to 194 °C	CN1C(=O)Cn2c(CCl)nnc2-c2cc(Cl)ccc21
113 °C	CCN(CC)C(=O)C=Cc1ccc(-c2ccccc2)cc1
65 to 70 °C	O=C(CN1C(=O)CC1SCc1ccccc1)NCCCCCCc1ccccc1 (stereo not given)
310 to 312 °C	CCCCCc1nc2ccc(C(=O)O)cc2c(=O)[nH]1
91 to 92 °C	Cc1cnc(S(=O)(=O)c2ccccc2)c(C)c1Cl
205 to 206 °C	NC(=NO)c1nn(-c2c(Cl)cc(C(F)(F)F)cc2Cl)c(N)c1S(=O)(=O)C(F)(F)F
185 to 187 °C	Cc1nc(N2CCN(Cc3csc4ccc(Cl)cc34)C2=O)sc1C(=O)NCc1cccnc1
143 to 144 °C	Cc1cc(C#N)cc(Oc2nc(Cl)nc(Cl)c2C(C)C)c1
66 to 69 °C	CCC(=CC(CSc1nnnn1-c1ccccc1)=NO)C(C)[N+](=O)[O-] (stereo not given)
130 °C	CCOC(=O)[C@H](O)[C@@H](NC(=O)OC(C)(C)C)c1ccc(C)cc1
80 to 81 °C	O=C1CCC(OCc2ccccc2)N1S(=O)(=O)c1ccccc1 (stereo not given)
285 °C	NS(=O)(=O)c1cccc(-c2nc(-c3cnn4c(C(F)(F)F)cc(-c5ccc(C(F)(F)F)cc5)nc34)no2)c1
101 to 102 °C	CCOC(=O)C1CCn2c1cc(C)c2C(=O)c1ccc(SC)n1C (stereo not given)

Compound	melting point
N#CC1CN1C(=O)NC(=O)CCl (stereo not given)	152 to 155 °C
NCC1(CC(=O)O)CCCCCC1	180 °C
NC(=O)c1cc(C(c2c(F)ccc(F)c2F)S(=O)(=O)CCC(F)(F)F)c(Cl)cn1 (stereo not given)	237 to 239 °C
N=C(N)c1cccc(Cc2c[nH]cn2)c1O	249 °C
CC(=O)c1cccnc1N(C)C1CCN(Cc2ccccc2)CC1	93 to 94 °C
